The structures appear in SMILES notation. Where only a bound is given, the exact number is not on record here.

The test deals with T1, Lanosterol 14-alpha demethylase (Homo sapiens, UniProt Q16850).
T1 sequence (Q16850 whole entry): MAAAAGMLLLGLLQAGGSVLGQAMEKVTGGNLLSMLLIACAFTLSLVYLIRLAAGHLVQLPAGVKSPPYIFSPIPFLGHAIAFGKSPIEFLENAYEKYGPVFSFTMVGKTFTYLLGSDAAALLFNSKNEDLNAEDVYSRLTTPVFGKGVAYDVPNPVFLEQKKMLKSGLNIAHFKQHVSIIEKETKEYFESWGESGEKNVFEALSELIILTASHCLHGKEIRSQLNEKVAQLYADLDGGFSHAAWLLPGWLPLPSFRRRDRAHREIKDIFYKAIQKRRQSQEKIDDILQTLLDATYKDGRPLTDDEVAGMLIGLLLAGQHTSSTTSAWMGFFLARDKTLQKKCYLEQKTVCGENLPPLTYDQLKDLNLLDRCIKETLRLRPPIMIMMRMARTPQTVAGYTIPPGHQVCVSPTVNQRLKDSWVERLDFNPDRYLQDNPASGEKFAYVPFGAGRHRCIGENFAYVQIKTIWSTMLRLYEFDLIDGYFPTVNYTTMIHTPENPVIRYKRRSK
Kind of test: Inhibition of CYP51A1. The text has this: Method: Recombinant human CYP51A1 (lanosterol-14a-demethylase) enzyme was coexpressed with CYP reductase in bacterial membranes and the fluorescent substrate BOMCC (a nonnatural substrate that causes increases in fluorescence upon CYP51A1-dependent demethylation) was used to obtain 8-point dose concentration-response curves for each compound.
With `CCC(=O)N(CCc1ccc(C(F)(F)F)nc1)C[C@@H](O)c1cccnc1` [US20230339890, Compound 30], the IC50 is more than 1000 nM.
As for `CCC(=O)N(C[C@@H](O)c1cccnc1)C1CCc2cc(Cl)c(Cl)cc2C1` (some centres undefined) [US20230339890, Compound 70], the figure is less than 100 nM; as for `CC(C)(C)OC(=O)NCCCCCN(C[C@@H](O)c1cccnc1)C(=O)Cc1ccc(C#N)c(Cl)c1` [US20230339890, Compound 142], less than 100 nM.
As for `CC(C)(C)OC(=O)NCCCCN(C[C@@H](O)c1cccnc1)C(=O)Cc1ccc(C(F)(F)F)nc1` [US20230339890, Compound 144], the figure is less than 100 nM.

The record behind these values is BindingDB's records for patent US20230339890 (Kineta, 2023).
